From patent EP2975033A1, “Improved cysteine-protease inhibitors” (Universitat Jaume I, priority 2014, dated 2016)
Converted amounts (≈) assume the structure as drawn. Where two headings read alike, the source gives them in different places. Each block holds one compound with its values, some of them ahead of it.

Experiments:
[1] = target: T1, Cathepsin L (human) (Homo sapiens, UniProt P07711); experiment: Protease assay, fluorogenic substrate Z-Phe-Arg-AMC: Cathepsin L; type: biochemical; conditions: CL=CathepsinL
T1 construct: Cathepsin L (human liver) Calbiochem; purchased Calbiochem; host or cells: human liver (tissue-derived)
Description: (§1) 2.1.1. Protease Assays as shown in tables 1 and 2: Cathepsin L (human), Cathepsin B (human), Rhodesain (Trypanosoma brucei rhodesiense), Falcipain 2 (Plasmodium falciparum)
(§2) Enzyme assays used to identify inhibitors of the target cysteine proteases. The effect is detected measuring fluorescence increase due to hydrolysis of fluorogenic substrates by the target enzymes in absence and presence of potential inhibitors.
(§3) • a. Proteins (enzymes): • Cathepsin L (human liver) Calbiochem • Cathepsin B (human liver) Calbiochem • Rhodesain: recombinantly expressed according to ref.: Caffrey, C. R.; Hansell, E.; Lucas, K. D.; Brinen, L. S.; Hernandez, A. A.; Cheng, J.; Gwaltney, S. L., II; Roush, W. R.; Stierhof, Y. D.; Bogyo, M.; Steverding, D.; McKerrow, J. H. Active site mapping, biochemical properties and subcellular localization of rhodesain, the major cysteine protease of Trypanosoma • Falcipain 2: recombinantly expressed according to ref.: Pandey, K. C.; Wang, S. X.; Sijwali, P. S.; Lau, A. L.; McKerrow, J. H.; Rosenthal, P. J. The Plasmodium falciparum cysteine protease falcipain-2 captures its substrate, hemoglobin, via a unique motif. Proc. Natl. Acad. Sci. U.S.A. 2005, 102, 9138-9143. • b. Buffers: • Cathepsin B: 50 mM Tris-Puffer pH 6.5 mit 2 mM DTT, 5 mM EDTA, 200 mM NaCl, 0.005% Brij35 • Cathepsin L: 50 mM Tris-Puffer pH 6.5 mit 2 mM DTT, 5 mM EDTA, 200 mM NaCl, 0.005% Brij35 • Rhodesain: 50 mM Acetat-Puffer pH 5.5 mit 5 mM DTT, 5 mM EDTA, 200 mM NaCl, 0.005% Brij35 • Falcipain 2: 50 mM Acetat-Puffer pH 5.5 mit 5 mM DTT, 5 mM EDTA, 200 mM NaCl, 0.005% Brij35 • c. Substrates: • Cathepsin L: 6,25 µM Z-Phe-Arg-7-amino-4-methylcumarin, HCl von Bachem, Ex 380 nm, Em 460 nm • Cathepsin B: 100 µM Z-Phe-Arg-7-amino-4-methylcumarin, HCl von Bachem, Ex 380 nm, Em 460 nm • Rhodesain: 10µM Z-Phe-Arg-7-amino-4-methylcumarin, HCl von Bachem, Ex 380 nm, Em 460 nm • Falcipain 2: 25µM Z-Phe-Arg-7-amino-4-methylcumarin, HCl von Bachem, Ex 380 nm, Em 460 nm • Reference substance(s)/positive control(s): E64 • d. Solvent for inhibitors and substrates: DMSO 99,5% (GC) DC4540, Sigma • e. Measurement device: Tecan Fluorescence spectrophotometer infinite F200 Pro • f. Well plates: 96 well plates, Lia-Plate White, Greiner bio-one, flat bottom, high binding • g. Methodology: Substrates and inhibitor stock solutions are prepared in DMSO and diluted with the respective assay buffer (final DMSO concentration: […]). Enzyme stock solutions are diluted with assay buffer to yield a fluorescence increase of dF/min ≈ _20. Total volume: 200 µL (180 µL of assay buffer, 5 µL of enzyme solution, 10 µL of DMSO or inhibitor solution, 5 µL of substrate solution). Assays are started by the addition of substrate solution. Fluorescence increase is detected over a period of 10 - 30 min, depending on time dependent (30 min) or non-time dependent (10 min) inhibition. • h. Temp: 25 °C • i. DATA-[…] • Software: Grafit 5.013 • Ki values are calculated from IC50 values (obtained by the 4-parameter IC50 equation) using the Chen-Prusoff equation: Ki=IC50/(1 + [S]/Km)
(§4) In vitro inhibition of cysteine-proteases cruzain (CR) (Trypanosoma cruzi (T. cruzi)), rhodesain (RD) (T. brucei), cathepsin B (CB), falcipain (FP2) (Plasmodium falciparum) and cathepsin L (CL) was assessed by quantification of the resulting fluorescence emission of the proteolytic breakdown of synthetic compound Z-Phe-Arg-AMC (Bachem). The results of this determination are shown in tables 1 and 2 illustrated above.

[2] = target: cruzain (CR) (Trypanosoma cruzi, UniProt P25779); experiment: In vitro inhibition of cruzain, fluorescence of Z-Phe-Arg-AMC breakdown; type: biochemical
Experimental: as §2, §4

[3] = target: T2, Cathepsin B (human) (Homo sapiens, UniProt P07858); experiment: Protease assay, fluorogenic substrate Z-Phe-Arg-AMC: Cathepsin B; type: biochemical; conditions: CB=CathepsinB
T2 construct: Cathepsin B (human liver) Calbiochem; purchased Calbiochem; host or cells: human liver (tissue-derived)
Description: as §1, §2, §3, §4

[4] = target: T3, Rhodesain (Trypanosoma brucei rhodesiense, UniProt Q95PM0); experiment: Protease assay, fluorogenic substrate Z-Phe-Arg-AMC: Rhodesain; type: biochemical
T3 construct: made in house
Description: as §1, §2, §3, §4

[5] = system: T. cruzi Tulahuen strain C2C4; experiment: Activity against T. cruzi in L-6 cells (beta-galactosidase, CPRG); type: cell-based; conditions: for IC50: Trypanosoma cruzi, TULAHUEN
Experimental: (§5) For all the susceptibility assays with parasites and cells, each drug was tested in duplicate and each assay was repeated at least once. • a. Activity against Trypanosoma brucei rhodesiense STIB900. This stock was isolated in 1982 from a human patient in Tanzania and after several mouse passages cloned and adapted to axenic culture conditions (Baltz et al 1985) Minimum Essential Medium (50 µl) supplemented with 25 mM HEPES, 1g/l additional glucose, 1% MEM non-essential amino acids (100x), 0.2 mM 2-mercaptoethanol, 1 mM Na-pyruvate and 15% heat inactivated horse serum was added to each well of a 96-well microtiter plate. Serial drug dilutions of eleven 3-fold dilution steps covering a range from 100 to 0.002 µg/ml were prepared. Then 4x10^3 bloodstream forms of T. b. rhodesiense STIB 900 in 50 µl was added to each well and the plate incubated at 37 °C under a 5 % CO2 atmosphere for 70 h. 10 µl Alamar Blue (resazurin, 12.5 mg in 100 ml double-distilled water) was then added to each well and incubation continued for a further 2-4 h (Raz et al 1997). Then the plates were read with a Spectramax Gemini XS microplate fluorometer (Molecular Devices Cooperation, Sunnyvale, CA, USA) using an excitation wave length of 536 nm and an emission wave length of 588 nm. The IC50 values were calculated by linear regression (Huber 1993) from the sigmoidal dose inhibition curves using SoftmaxPro software (Molecular Devices Cooperation, Sunnyvale, CA, USA). Melarsoprol (Arsobal Sanofi-Aventis, received from WHO) is used as control. • b. Activity against T. cruzi. Rat skeletal myoblasts (L-6 cells) were seeded in 96-well microtitre plates at 2000 cells/well in 100 µL RPMI 1640 medium with 10% FBS and 2 mM I-glutamine. After 24 h the medium was removed and replaced by 100 µl per well containing 5000 trypomastigote forms of T. cruzi Tulahuen strain C2C4 containing the β-galactosidase (Lac Z) gene (Buckner et al. 1996). After 48 h the medium was removed from the wells and replaced by 100 µl fresh medium with or without a serial drug dilution of eleven 3-fold dilution steps covering a range from 100 to 0.002 µg/ml. After 96 h of incubation the plates were inspected under an inverted microscope to assure growth of the controls and sterility. Then the substrate CPRG/Nonidet (50 µl) was added to all wells. A color reaction developed within 2-6 h and could be read photometrically at 540 nm. Data were analyzed with the graphic programme Softmax Pro (Molecular Devices), which calculated IC50 values by linear regression (Huber 1993) from the sigmoidal dose inhibition curves. […] Activity against L. donovani axenic amastigotes. Amastigotes of L. donovani strain MHOM/ET/67/L82 were grown in axenic culture at 37 °C in SM medium (Cunnigham et al. 1977) at pH 5.4 supplemented with 10% heat-inactivated fetal bovine serum under an atmosphere of 5% CO2 in air. One hundred microlitres of culture medium with 10^5 amastigotes from axenic culture with or without a serial drug dilution were seeded in 96-well microtitre plates. Serial drug dilutions of eleven 3-fold dilution steps covering a range from 90 to 0.002 µg/ml were prepared. After 70 h of incubation the plates were inspected under an inverted microscope to assure growth of the controls and sterile conditions. 10 µl of Alamar Blue (12.5 mg resazurin dissolved in 100 ml distilled water) (Mikus and Steverdig. 2000) were then added to each well and the plates incubated for another 2 h. Then the plates were read with a Spectramax Gemini XS microplate fluorometer (Molecular Devices Cooperation, Sunnyvale, CA, USA) using an excitation wave length of 536 nm and an emission wave length of 588 nm. Data were analyzed using the software Softmax Pro (Molecular Devices Cooperation, Sunnyvale, CA, USA). Decrease of fluorescence (= inhibition) was expressed as percentage of the fluorescence of control cultures and plotted against the drug concentrations. From the sigmoidal inhibition curves the IC50 values were calculated. • d.

[6] = system: P. falciparum NF54 strain; experiment: Activity against P. falciparum, 3H-hypoxanthine incorporation assay; type: cell-based; conditions: for IC50: Plasmodium falciparum
[7] = system: Trypanosoma brucei rhodesiense STIB900; experiment: Activity against Trypanosoma brucei rhodesiense STIB900 (Alamar Blue); type: cell-based; conditions: for IC50: Trypanosoma brucei
Experimental: as §5

T1 sequence (P07711 114-333): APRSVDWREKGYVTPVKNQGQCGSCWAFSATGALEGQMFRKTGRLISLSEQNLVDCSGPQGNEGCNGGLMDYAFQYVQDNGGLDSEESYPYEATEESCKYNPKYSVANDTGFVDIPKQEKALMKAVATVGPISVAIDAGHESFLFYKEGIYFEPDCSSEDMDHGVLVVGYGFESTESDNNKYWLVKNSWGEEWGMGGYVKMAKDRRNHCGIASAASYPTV
T3 sequence (Q95PM0 entry or part of it): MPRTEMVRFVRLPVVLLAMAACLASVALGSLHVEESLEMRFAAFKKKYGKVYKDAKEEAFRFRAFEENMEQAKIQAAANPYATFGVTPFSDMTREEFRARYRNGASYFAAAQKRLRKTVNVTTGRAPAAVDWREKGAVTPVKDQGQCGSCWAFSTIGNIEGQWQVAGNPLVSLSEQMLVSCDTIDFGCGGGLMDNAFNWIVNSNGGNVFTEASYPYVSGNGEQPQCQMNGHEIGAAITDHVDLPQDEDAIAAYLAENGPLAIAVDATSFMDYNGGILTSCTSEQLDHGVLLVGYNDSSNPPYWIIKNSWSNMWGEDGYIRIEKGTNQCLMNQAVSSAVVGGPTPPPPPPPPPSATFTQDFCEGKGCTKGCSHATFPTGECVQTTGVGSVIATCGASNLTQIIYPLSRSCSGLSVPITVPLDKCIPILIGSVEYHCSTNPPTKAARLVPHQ
Sequence of cruzain (CR) (P25779 123-467): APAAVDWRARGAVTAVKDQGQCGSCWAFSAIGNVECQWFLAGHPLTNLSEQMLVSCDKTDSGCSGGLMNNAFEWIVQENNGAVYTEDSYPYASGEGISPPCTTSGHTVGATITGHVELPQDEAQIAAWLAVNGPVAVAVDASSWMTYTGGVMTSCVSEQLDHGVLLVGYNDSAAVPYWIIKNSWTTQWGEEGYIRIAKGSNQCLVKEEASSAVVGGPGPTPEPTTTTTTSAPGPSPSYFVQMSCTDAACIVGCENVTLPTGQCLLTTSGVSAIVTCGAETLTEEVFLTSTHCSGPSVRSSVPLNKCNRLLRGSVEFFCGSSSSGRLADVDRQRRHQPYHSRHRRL

SMILES: CC(C)C[C@H](NC(=O)[C@H](Cc1ccccc1)NC(=O)OCc1ccccc1)C(=O)/C=C/S(=O)(=O)c1ccccc1
CL(K2nd(M-1s-1)) [1]: 383272 M⁻¹ s⁻¹
IC50 ([1]; read-out: CL(IC50), 25 °C, pH 6.5, 6,25 µM substrate): 9.95 nM
CR(K2nd(M-1s-1)) [2]: 709411 M⁻¹ s⁻¹
IC50 [2]: 11.1 nM
CB(K2nd(M-1s-1)) [3]: 82248 M⁻¹ s⁻¹
IC50 ([3]; read-out: CBIC50micM, 25 °C, pH 6.5, 100 µM substrate): 50 nM
RD(K2nd(M-1s-1)) [4]: 1361750 M⁻¹ s⁻¹
IC50 ([4]; RD=Rhodesain, 25 °C, pH 5.5, 10µM substrate): 6 nM

SMILES: CCOC(=O)C=CC(O)C(CCc1ccccc1)NC(=O)C(Cc1ccccc1)NC(=O)OCc1ccccc1 (single isomer, unassigned)
CL(K2nd(M-1s-1)) [1]: 77 M⁻¹ s⁻¹
CB(K2nd(M-1s-1)) [3]: 14 M⁻¹ s⁻¹

SMILES: O=C(Cn1ccnc1[N+](=O)[O-])NCc1ccccc1 [Benznidazole]
IC50 ([5]; L6, 96 h, replicate 1, L-6 cells, 96 h, read-out: T.cruzi. IC50 repl1): 657 ng/mL (≈ 2.52 µM)
IC50 ([5]; L6, 96 h, replicate 2, L-6 cells, 96 h, read-out: T.cruzi. IC50 repl2): 522 ng/mL (≈ 2.01 µM)
IC50 ([5]; L6, control value stated in the method text): 500 ± 200 ng/mL (≈ 1.92 µM)
IC50 ([5]; L6, mean of replicates, read-out: T.cruzi. IC50 mean): 590 ng/mL (≈ 2.27 µM)
T.cruzi. IC50 mean ([5]; mean of replicates): 0,516 micrograms/mL
T.cruzi. IC50 repl1 ([5]; replicate 1, L-6 cells, 96 h): 0,367 micrograms/mL
T.cruzi. IC50 repl2 ([5]; replicate 2, L-6 cells, 96 h): 0,664 micrograms/mL

IC50 ([6]; NF54, read-out: P.falc NF54 IC50 mean, mean of replicates): 3 ng/mL (≈ 0.00938 µM)
IC50 ([6]; NF54, read-out: P.falc NF54 IC50 repl1, replicate 1, erythrocytic stages, NF54): 3 ng/mL (≈ 0.00938 µM)
IC50 ([6]; NF54, read-out: P.falc NF54 IC50 repl2, replicate 2, erythrocytic stages, NF54): 2 ng/mL (≈ 0.00625 µM)
P.falc NF54 IC50 repl1 ([6]; replicate 1, erythrocytic stages, NF54): 0,002 micrograms/mL
SMILES: CCN(CC)CCCC(C)Nc1ccnc2cc(Cl)ccc12 (stereo not drawn) [Chloroquine, reference compound]

SMILES: Nc1nc(N)nc(Nc2ccc([As]3SCC(CO)S3)cc2)n1 (stereo not drawn) [Melarsoprol, reference compound]
IC50 ([7]; 70 h, read-out: T.b.rhod. IC50 repl1, replicate 1, bloodstream forms, 70 h): 5 ng/mL
IC50 ([7]; 70 h, read-out: T.b.rhod. IC50 repl2, replicate 2, bloodstream forms, 70 h): 2 ng/mL
IC50 ([7]; read-out: T.b.rhod. IC50 mean, mean of replicates): 3 ng/mL
T.b.rhod. IC50 mean ([7]; mean of replicates): 0,004 micrograms/mL
T.b.rhod. IC50 repl1 ([7]; replicate 1, bloodstream forms, 70 h): 0,003 micrograms/mL
T.b.rhod. IC50 repl2 ([7]; replicate 2, bloodstream forms, 70 h): 0,004 micrograms/mL
